From ChEMBL document CHEMBL4613209, “Quinolone hybrids and their anti-cancer activities: An overview” (Eur J Med Chem, 2019)
pIC50: −log10 of the molar value.

Experiments:
Type in all cases: functional, cell-based
MCF7 = assay: Cytotoxicity against human MCF7 cells assessed as reduction in cell viability by MTT assay
SK-MEL3 = assay: Cytotoxicity against human SK-MEL-3 cells assessed as reduction in cell viability by MTT assay
A-431 = assay: Cytotoxicity against human A431 cells assessed as reduction in cell viability by MTT assay
EJ = assay: Cytotoxicity against human EJ cells assessed as reduction in cell viability by MTT assay
SW480 = assay: Cytotoxicity against human SW480 cells assessed as reduction in cell viability by MTT assay
L1210 = assay: Cytotoxicity against mouse L1210 cells assessed as reduction in cell viability
HL-60 = assay: Cytotoxicity against human HL60 cells assessed as reduction in cell viability
CHO = assay: Cytotoxicity against CHO cells assessed as reduction in cell viability; settings: Cricetulus griseus

SMILES | pIC50 (MCF7) | pIC50 (SK-MEL3) | pIC50 (A-431) | pIC50 (EJ) | pIC50 (SW480) | pIC50 (L1210) | pIC50 (HL-60) | pIC50 (CHO)
CO/N=C(/CN1CCN(c2cc3c(cc2F)c(=O)c(C(=O)O)cn3C2CC2)CC1)c1ccc(Cl)s1 | ≥ 4.70 | ≥ 4.70 | ≥ 4.70 | ≥ 4.70 | ≥ 4.70 |  |  | 
C[C@H]1COc2c(N3CCN(C)CC3)c(F)cc3c(=O)c(-c4nn5c(-c6cn(C7CC7)c7cc(N8CCNCC8)c(F)cc7c6=O)nnc5s4)cn1c23 |  |  |  |  |  | 5.28 to 6.92 | 5.28 to 6.92 | 5.28 to 6.92
CN1CCN(c2cc3c(cc2F)c(=O)c(-c2nn4c(-c5cn(C6CC6)c6cc(N7CCNCC7)c(F)cc6c5=O)nnc4s2)cn3C2CC2)CC1 |  |  |  |  |  | 5.28 to 6.92 | 5.28 to 6.92 | 5.28 to 6.92
CCn1cc(C(=O)O)c(=O)c2cc(F)c(N3CCN(C/C(=N/OC)c4cccs4)CC3)nc21 | 3.88 to 5.70 | 3.88 to 5.70 | 3.88 to 5.70 | 3.88 to 5.70 | 3.88 to 5.70 |  |  | 
CCn1cc(C(=O)O)c(=O)c2cc(F)c(N3CCN(CC(=O)c4ccc(Cl)s4)CC3)nc21 | ≤ 4.00 | ≤ 4.00 | ≤ 4.00 | ≤ 4.00 | ≤ 4.00 |  |  | 
CCn1cc(C(=O)O)c(=O)c2cc(F)c(N3CCN(C/C(=N/O)c4cccs4)CC3)nc21 | 3.88 to 5.70 | 3.88 to 5.70 | 3.88 to 5.70 | 3.88 to 5.70 | 3.88 to 5.70 |  |  | 
CCN1CCN(c2cc3c(nc2F)c(=O)c(-c2nn4c(-c5cn(C6CC6)c6cc(N7CCN(C)CC7)c(F)cc6c5=O)nnc4s2)cn3C2CC2)CC1 |  |  |  |  |  | 5.28 to 6.92 | 5.28 to 6.92 | 5.28 to 6.92
CC1COc2c(N3CCN(C)CC3)c(F)cc3c(=O)c(-c4nn5c(-c6cn(C7CC7)c7cc(N8CCNCC8)c(F)cc7c6=O)nnc5s4)cn1c23 (configuration not stated) |  |  |  |  |  | 4.63 to 4.85 | 4.63 to 4.85 | 4.63 to 4.85
CC1COc2c(N3CCN(C)CC3)c(F)cc3c(=O)c(-c4nnc(-c5cn(C6CC6)c6cc(N7CCN(C)CC7)c(F)cc6c5=O)o4)cn1c23 (configuration not stated) |  |  |  |  |  | 4.84 to 6.59 | 4.84 to 6.59 | 4.84 to 6.59
CCn1cc(-c2nnc(-c3cn(C4CC4)c4cc(N5CCNCC5)c(F)cc4c3=O)o2)c(=O)c2cc(F)c(N3CCNCC3)cc21 |  |  |  |  |  | 4.84 to 6.59 | 4.84 to 6.59 | 4.84 to 6.59
CCN1CCN(c2cc3c(cc2F)c(=O)c(-c2nn4c(-c5cn(C6CC6)c6cc(N7CCN(C)CC7)c(F)cc6c5=O)nnc4s2)nn3C2CC2)CC1 |  |  |  |  |  | 5.28 to 6.92 | 5.28 to 6.92 | 5.28 to 6.92
CCN1CCN(c2cc3c(cc2F)c(=O)c(-c2nnc4sc(-c5cn(C6CC6)c6cc(N7CCNCC7)c(F)cc6c5=O)nn24)cn3C2CC2)CC1 |  |  |  |  |  | 5.28 to 6.92 | 5.28 to 6.92 | 5.28 to 6.92
CCn1cc(C(=O)O)c(=O)c2cc(F)c(N3CCN(C/C(=N/O)c4ccc(Cl)s4)CC3)cc21 | ≥ 4.70 | ≥ 4.70 | ≥ 4.70 | ≥ 4.70 | ≥ 4.70 |  |  | 
C[C@H]1COc2c(N3CCN(C)CC3)c(F)cc3c(=O)c(-c4nnc(-c5cn(C6CC6)c6cc(N7CCN(C)CC7)c(F)cc6c5=O)o4)cn1c23 |  |  |  |  |  | 4.84 to 6.59 | 4.84 to 6.59 | 4.84 to 6.59
O=C(O)c1cn(C2CC2)c2cc(N3CCN(C/C(=N/OCc4ccccc4)c4ccc(Cl)s4)CC3)c(F)cc2c1=O | ≥ 4.70 | ≥ 4.70 | ≥ 4.70 | ≥ 4.70 | ≥ 4.70 |  |  | 
CCN1CCN(c2cc3c(cc2F)c(=O)c(-c2nnc4sc(-c5cn(CC)c6cc(N7CCN(C)CC7)c(F)cc6c5=O)nn24)cn3C2CC2)CC1 |  |  |  |  |  | 5.28 to 6.92 | 5.28 to 6.92 | 5.28 to 6.92
O=C(O)c1cn(C2CC2)c2cc(N3CCN(C/C(=N/O)c4ccc(Cl)s4)CC3)c(F)cc2c1=O | ≥ 4.70 | ≥ 4.70 | ≥ 4.70 | ≥ 4.70 | ≥ 4.70 |  |  | 
CCn1cc(C(=O)O)c(=O)c2cc(F)c(N3CCN(C/C(=N/OC)c4cccs4)CC3)cc21 | 3.88 to 5.70 | 3.88 to 5.70 | 3.88 to 5.70 | 3.88 to 5.70 | 3.88 to 5.70 |  |  | 
CN1CCN(c2cc3c(cc2F)c(=O)c(-c2nnc4sc(-c5cn(C6CC6)c6nc(N7CCN(C)CC7)c(F)cc6c5=O)nn24)cn3C2CC2)CC1 |  |  |  |  |  | 5.28 to 6.92 | 5.28 to 6.92 | 5.28 to 6.92
CCn1cc(C(=O)O)c(=O)c2cc(F)c(N3CCN(CC(=O)c4cccs4)CC3)nc21 | 3.88 to 5.70 | 3.88 to 5.70 | 3.88 to 5.70 | 3.88 to 5.70 | 3.88 to 5.70 |  |  | 
CN1CCN(c2cc3c(nc2F)c(=O)c(-c2nnc4sc(-c5cn(C6CC6)c6cc(N7CCNCC7)c(F)cc6c5=O)nn24)cn3C2CC2)CC1 |  |  |  |  |  | 5.28 to 6.92 | 5.28 to 6.92 | 5.28 to 6.92
CCn1cc(C(=O)O)c(=O)c2cc(F)c(N3CCN(CC(=O)c4cccs4)CC3)cc21 | 3.88 to 5.70 | 3.88 to 5.70 | 3.88 to 5.70 | 3.88 to 5.70 | 3.88 to 5.70 |  |  | 
CCn1cc(C(=O)O)c(=O)c2cc(F)c(N3CCN(C/C(=N/OCc4ccccc4)c4cccs4)CC3)cc21 | 3.88 to 5.70 | 3.88 to 5.70 | 3.88 to 5.70 | 3.88 to 5.70 | 3.88 to 5.70 |  |  | 

SMILES | pIC50 (MCF7) | pIC50 (SK-MEL3) | pIC50 (A-431) | pIC50 (EJ) | pIC50 (SW480) | pIC50 (L1210) | pIC50 (HL-60) | pIC50 (CHO)
O=C(O)c1cn(C2CC2)c2cc(N3CCN(C/C(=N/OCc4ccccc4)c4cccs4)CC3)c(F)cc2c1=O | 3.88 to 5.70 | 3.88 to 5.70 | 3.88 to 5.70 | 3.88 to 5.70 | 3.88 to 5.70 |  |  | 
C[C@H]1COc2c(N3CCN(C)CC3)c(F)cc3c(=O)c(-c4nn5c(-c6cn(C7CC7)c7cc(N8CCN(C)CC8)c(F)cc7c6=O)nnc5s4)cn1c23 |  |  |  |  |  | 5.28 to 6.92 | 5.28 to 6.92 | 5.28 to 6.92
O=C(N/N=C/c1ccc([N+](=O)[O-])cc1)c1cn(C2CC2)c2cc(N/N=C/c3ccc([N+](=O)[O-])cc3)c(F)cc2c1=O |  |  |  |  |  | 4.63 to 5.82 | 4.63 to 5.82 | 4.63 to 5.82
CCN1CCN(c2cc3c(cc2F)c(=O)c(-c2nnc(-c4cn(C5CC5)c5cc(N6CCNCC6)c(F)cc5c4=O)o2)cn3C2CC2)CC1 |  |  |  |  |  | 4.84 to 6.59 | 4.84 to 6.59 | 4.84 to 6.59
CCn1cc(C(=O)O)c(=O)c2cc(F)c(N3CCN(C/C(=N/OCc4ccccc4)c4cccs4)CC3)nc21 | 3.88 to 5.70 | 3.88 to 5.70 | 3.88 to 5.70 | 3.88 to 5.70 | 3.88 to 5.70 |  |  | 
O=c1c(-c2nn3c(-c4cn(C5CC5)c5cc(N6CCNCC6)c(F)cc5c4=O)nnc3s2)cn(C2CC2)c2cc(N3CCNCC3)c(F)cc12 |  |  |  |  |  | 5.28 to 6.92 | 5.28 to 6.92 | 5.28 to 6.92
CCn1cc(C(=O)O)c(=O)c2cc(F)c(N3CCN(C/C(=N/OCc4ccccc4)c4ccc(Cl)s4)CC3)cc21 | ≥ 4.70 | ≥ 4.70 | ≥ 4.70 | ≥ 4.70 | ≥ 4.70 |  |  | 
CCn1cc(C(=O)O)c(=O)c2cc(F)c(N3CCN(C/C(=N/OCc4ccccc4)c4ccc(Cl)s4)CC3)nc21 | ≥ 4.70 | ≥ 4.70 | ≥ 4.70 | ≥ 4.70 | ≥ 4.70 |  |  | 
CC1COc2c(N3CCN(C)CC3)c(F)cc3c(=O)c(-c4nn5c(-c6cn(C7CC7)c7cc(N8CCN(C)CC8)c(F)cc7c6=O)nnc5s4)cn1c23 (configuration not stated) |  |  |  |  |  | 4.63 to 4.85 | 4.63 to 4.85 | 4.63 to 4.85
CCN1CCN(c2cc3c(cc2F)c(=O)c(-c2nn4c(-c5cn(C6CC6)c6cc(N7CCN(CC)CC7)c(F)cc6c5=O)nnc4s2)cn3C2CC2)CC1 |  |  |  |  |  | 5.28 to 6.92 | 5.28 to 6.92 | 5.28 to 6.92
O=C(CN1CCN(c2cc3c(cc2F)c(=O)c(C(=O)O)cn3C2CC2)CC1)c1ccc(Cl)s1 | ≤ 4.00 | ≤ 4.00 | ≤ 4.00 | ≤ 4.00 | ≤ 4.00 |  |  | 
O=c1c(-c2nnc(-c3cn(C4CC4)c4cc(N5CCNCC5)c(F)cc4c3=O)o2)cn(C2CC2)c2cc(N3CCNCC3)c(F)cc12 |  |  |  |  |  | 4.84 to 6.59 | 4.84 to 6.59 | 4.84 to 6.59
CCn1cc(C(=O)O)c(=O)c2cc(F)c(N3CCN(C/C(=N/OC)c4ccc(Cl)s4)CC3)nc21 | ≥ 4.70 | ≥ 4.70 | ≥ 4.70 | ≥ 4.70 | ≥ 4.70 |  |  | 
CCN1CCN(c2cc3c(cc2F)c(=O)c(-c2nnc4sc(-c5cn6c7c(c(N8CCN(C)CC8)c(F)cc7c5=O)OC[C@@H]6C)nn24)cn3C2CC2)CC1 |  |  |  |  |  | 5.28 to 6.92 | 5.28 to 6.92 | 5.28 to 6.92
CCN1CCN(c2cc3c(cc2F)c(=O)c(-c2nnc4sc(-c5cn(C6CC6)c6cc(N7CCN(C)CC7)c(F)cc6c5=O)nn24)cn3C2CC2)CC1 |  |  |  |  |  | 5.28 to 6.92 | 5.28 to 6.92 | 5.28 to 6.92
CCN1CCN(c2cc3c(cc2F)c(=O)c(-c2nnc4sc(-c5cn6c7c(c(N8CCN(C)CC8)c(F)cc7c5=O)OCC6C)nn24)cn3C2CC2)CC1 (configuration not stated) |  |  |  |  |  | 4.63 to 4.85 | 4.63 to 4.85 | 4.63 to 4.85
O=C(CN1CCN(c2cc3c(cc2F)c(=O)c(C(=O)O)cn3C2CC2)CC1)c1cccs1 | 3.88 to 5.70 | 3.88 to 5.70 | 3.88 to 5.70 | 3.88 to 5.70 | 3.88 to 5.70 |  |  | 
CCn1cc(C(=O)O)c(=O)c2cc(F)c(N3CCN(C/C(=N/O)c4ccc(Cl)s4)CC3)nc21 | ≥ 4.70 | ≥ 4.70 | ≥ 4.70 | ≥ 4.70 | ≥ 4.70 |  |  | 
CCN1CCN(c2cc3c(cc2F)c(=O)c(-c2nn4c(-c5cn(C6CC6)c6cc(N7CCNCC7)c(F)cc6c5=O)nnc4s2)cn3C2CC2)CC1 |  |  |  |  |  | 5.28 to 6.92 | 5.28 to 6.92 | 5.28 to 6.92
CCN1CCN(c2cc3c(cc2F)c(=O)c(-c2nnc4sc(-c5cn(CC)c6cc(N7CCNCC7)c(F)cc6c5=O)nn24)cn3C2CC2)CC1 |  |  |  |  |  | 5.28 to 6.92 | 5.28 to 6.92 | 5.28 to 6.92
CCn1cc(C(=O)O)c(=O)c2cc(F)c(N3CCN(CC(=O)c4ccc(Cl)s4)CC3)cc21 | ≤ 4.00 | ≤ 4.00 | ≤ 4.00 | ≤ 4.00 | ≤ 4.00 |  |  | 
CCn1cc(C(=O)O)c(=O)c2cc(F)c(N3CCNCC3)nc21 [ENOXACIN] | 3.62 to 3.86 | 3.62 to 3.86 | 3.62 to 3.86 | 3.62 to 3.86 | 3.62 to 3.86 |  |  | 
